In patent US7423153B2, “Crystalline forms of gatifloxacin” (Teva Pharmaceutical Industries Ltd., priority 2002, dated 2008):

What was measured:
[1] = Stability of E1 dihydrate against transformation to sesquihydrate on storage (PXRD); type: physicochemical
Protocol: A suitable method to determine the presence of gatifloxacin sesquihydrate in gatifloxacin form E1 is x-ray powder diffraction. Determination of presence of sesquihydrate in form E1 is feasible in the region 7° to 9° 2θ, where a peak of sesquihydrate appears at about 7.8° 2θ.
Moreover, the dihydrate of the present invention is stable against transformation to the sesquihydrate when exposed at ambient temperature to 60% relative humidity for one week.
The E1 dihydrate of the present invention is stable against transformation to sesquihydrate when stored at 30° C. and 60% relative humidity for 3 months.

[2] = Interconversion of crystalline forms by thermal treatment (XRD before and after heating); type: physicochemical
Protocol: (§1) X-ray reflections reported herein were determined by the powder diffraction technique (PXRD). X-ray powder diffraction analysis was performed using a Scintag powder diffractometer with variable goniometer, a Cu source, and a solid state detector. A standard round aluminum sample holder with zero background quartz plate was used. Samples were scanned from 2° to 40° 2θ at 3° per minute. Reflections are reported as peak maxima in the Intensity vs. 2θ plots, and are subject to the normal experimental error (uncertainty) of ±0.2°. Wet samples were promptly analyzed “as is,” i.e., without drying or grinding prior to the analysis.
Approximately 200 mg of several of the novel crystalline forms of the present invention, prepared as described in the foregoing examples, and several of the prior-art crystalline forms were subjected to various thermal treatments. The treatments and the results are described in Table II below
200 mg of gatifloxacin form E1 were heated to 100° C. for 1 hour. The XRD of the resulting sample was that of the omega form.

[3] = Stability of E1 in formulations; type: physicochemical; conditions: in formulations at 30° C.
Source text: The pharmaceutical composition can be in the form of a solid oral dosage form (e.g., compressed tablets or capsules), or it can be in the form of a liquid oral dosage form (e.g., a solution or oral suspension).

[4] = Exposure to 80% relative humidity for 1 week (XRD, TGA, KF); type: physicochemical; conditions: for crystal structure of resulting sample (XRD): 80% relative humidity for 1 week
Protocol: as §1
Thermogravimetric analysis (TGA) was performed using a Mettler TG50 thermobalance. Samples of 7 to 15 milligrams were analyzed at a heating rate of 10° C. per minute in the temperature range between about 25° C. and about 200° C.
The water content (wt-% water) of crystalline forms of gatifloxacin reported herein was determined by the Karl-Fisher method. Water content of solutions was likewise determined by the Karl-Fisher method.
200 mg of gatifloxacin form J were put in 80% relative humidity for 1 week. The resulting sample was analyzed by XRD, TGA and KF.
200 mg of gatifloxacin omega form were put in 80% relative humidity for 1 week, and then analyzed by XRD and by TGA.

[5] = as reported in U.S. Pat. No. 5,880,283; cited from earlier work
[6] = among forms of U.S. Pat. No. 6,413,969, cited from earlier work
[7] = after 80% relative humidity for 1 week

COc1c(N2CCNC(C)C2)c(F)cc2c(=O)c(C(=O)O)cn(C3CC3)c12 (stereo not shown) [E1 dihydrate, gatifloxacin]
stability against transformation to the sesquihydrate ([1]; ambient temperature, 60% relative humidity, one week, PXRD): stable
stability against transformation to sesquihydrate ([1]; stored at 30° C. and 60% relative humidity for 3 months): stable

COc1c(N2CCNC(C)C2)c(F)cc2c(=O)c(C(=O)O)cn(C3CC3)c12 (stereo not shown) [T1RP, gatifloxacin]
form Obtained after heating (XRD) ([2]; 120° C., 1 h): Hemihydrate

COc1c(N2CCNC(C)C2)c(F)cc2c(=O)c(C(=O)O)cn(C3CC3)c12 (stereo not shown) [form E1, gatifloxacin]
time stable in formulations [3]: at least 3 months
form Obtained after heating (XRD) ([2]; 100° C. for 1 hour): omega form

COc1c(N2CCNC(C)C2)c(F)cc2c(=O)c(C(=O)O)cn(C3CC3)c12 (stereo not shown) [form G, gatifloxacin]
form Obtained after heating (XRD) ([2]; 120° C., 1 h): Omega^1.

COc1c(N2CCNC(C)C2)c(F)cc2c(=O)c(C(=O)O)cn(C3CC3)c12 (stereo not shown) [form J, gatifloxacin]
form Obtained after heating (XRD) ([2]; 120° C., 1 h): omega
crystal structure of resulting sample (XRD) [4]: sesquihydrate
KF water content of resulting sample [4, 7]: 6.6%
LOD of resulting sample (TGA) [4, 7]: 7.8%

COc1c(N2CCNC(C)C2)c(F)cc2c(=O)c(C(=O)O)cn(C3CC3)c12 (stereo not shown) [hemihydrate, gatifloxacin]
form Obtained after heating (XRD) ([2]; 120° C., 1 h): T2RP
hygroscopicity [5]: hygroscopic

COc1c(N2CCNC(C)C2)c(F)cc2c(=O)c(C(=O)O)cn(C3CC3)c12 (stereo not shown) [omega form, gatifloxacin]
crystal structure of resulting sample (XRD) [4]: sesquihydrate
LOD of resulting sample (TGA) [4, 7]: 7.7%

COc1c(N2CCNC(C)C2)c(F)cc2c(=O)c(C(=O)O)cn(C3CC3)c12 (stereo not shown) [pentahydrate, gatifloxacin]
thermodynamic stability [6]: most thermodynamically stable form
aqueous solubility ([6]; room temperature): lowest aqueous solubility

COc1c(N2CCNC(C)C2)c(F)cc2c(=O)c(C(=O)O)cn(C3CC3)c12 (stereo not shown) [sesquihydrate, gatifloxacin]
form Obtained after heating (XRD) ([2]; 120° C., 1 h): T2RP + omega
hygroscopicity [5]: less hygroscopic
stability in manufacturing [5]: more stable in manufacturing
